Reference: US11013673B2, “Cosmetic compositions containing quinones and their topical use on skin and hair” (Repairogen Corp, priority 2016, dated 2021)

Experiments:
[1] = test system: human fibroblasts; assay: microarray analysis of differential gene expression in fibroblasts; format: cell-based
[2] = test system: primary human keratinocytes; assay: cytotoxicity assay (Cell Titer96 Aqueous One) on keratinocytes; format: cell-based; conditions: 24 h
Description: (§1) Normal primary adult human keratinocytes derived from a donor were purchased from PromoCell (Heidelberg, Germany) and cultured in keratinocytes growth medium (Epilife+EDGS, Thermo Fisher Scientific, NY, USA). Keratinocytes cultures were maintained at 37° C. with 5% CO2 and ˜95% humidity.
(§2) Cytotoxicity was evaluated using the Cell Titer96 Aqueous One (Promega, Wis., USA) basic test according to manufacturer's instructions. Cells were seeded at a density of 10,000 cells/well in a 96-well plate and cultured overnight. Treatments with seven doses of compounds were carried out for 24 hours, in triplicates. Colorimetric analysis was performed using an absorbance of 490 nm. Inhibition of viability of more than 20% of the control values was considered cytotoxic.
The cytotoxicity assay on primary human keratinocytes from adult donor was performed after 24 h of culture in the presence of different concentrations of each compound, as indicated in FIG. 2A and Table 1.

[3] = test system: human epidermal keratinocytes; assay: microarray analysis of differential gene expression in keratinocytes; conditions: for number of genes downregulated / number of genes upregulated: 24 h
Description: as §1
Normal primary human keratinocytes were seeded in 6-well plates and incubated for 24 h. Cells were then washed in PBS (Thermo Fisher Scientific) and reincubated for 24 more hours in the presence of RGN1518 and RGN1538 (each at two different concentrations), vehicle control, or positive control. Following treatment, the cells were washed with PBS, collected and stored frozen at −80° C. before RNA extraction.
RNA was extracted using a Qiagen RNeasy kit (Qiagen, CA, USA) according to manufacturer's protocol.
18 vials containing RNA isolated from human epidermal keratinocytes and 18 vials containing RNA isolated from human fibroblasts were shipped to Thermo Fisher Scientific, Advanced BioMedical Laboratories (Cinnaminson, N.J.) on dry ice for Affymetrix Human Clariom D array processing.
The differential gene expression was obtained using a threshold of 0.05 for statistical significance (p-value) and a log fold change of expression with absolute value of at least 1. Gene expression was further analysed using Differential Expression Analysis and Pathway Analysis iPathwayGuide) by Advaita Bioinformatics Services (Plymouth, Mich.) in the context of pathways obtained from the Kyoto Encyclopedia of Genes and Genomes (KEGG) database (Release 84.0+/10-26, October 17) (Kanehisa et al., 2000; Kanehisa et al., 2002), gene ontologies from the Gene Ontology Consortium database (2017 Nov. 6) (Ashburner et al., 2000; Gene Ontology Consortium, 2001), miRNAs from the miRBase (Release 21) and […] (Targetscan version:Mouse:7.1, Human:7.1) databases (Agarwal et al., 2015; Nam et al., 2014; Griffiths-Jones et al., 2008; Kozomara and Griffiths-Jones, 2014; Friedman et al., 2009; Grimson et al., 2007), and diseases from the KEGG database (Release 84.0+/10-26, October 17) (Kanehisa et al., 2000; Kanehisa et al., 2002). All references are available in the reports for bioinformatics analysis of differential gene expression provided by Advaita Bioinformatics Services at the following link.

[4] = stability of active ingredient in cosmetic composition; conditions: 40° C., 50° C., −5° C.; two-, four-, six-, eight-, and 12-week time points
Description: Two cosmetic compositions were prepared, one containing lapachol (denoted RGN 1538) and the other containing myrtucommulone C (denoted RGN 1518) as active ingredients, and the stabilities of the active ingredients in these compositions were evaluated.

[5] = test system: primary human fibroblasts; assay: cytotoxicity assay (Cell Titer96 Aqueous One) on fibroblasts; conditions: 24 h
Description: Normal human dermal adult fibroblasts derived from a donor of were purchased from CELLnTec (Bern, Switzerland) and grown in DMEM supplemented with 10% FBS (Life Technologies, CA, USA). Fibroblasts cultures were maintained at 37° C. with 5% CO2 and ˜95% humidity.
as §2
The cytotoxicity assay on primary human fibroblasts from adult donor was performed after 24 h of culture in the presence of different concentrations of each compound, as indicated in FIG. 2B and Table 2.

[6] = concentration of 50 (unit not given), 24 h
[7] = wound healing gene, fibroblasts, 24 h

Substance: myrtucommulone C
- vascular wound healing, spreading of epidermal cells and vasculature development (gene profile) [1]: activation
- number of genes downregulated ([1]; 25 μM, 24 h, of 24905 genes): 430 genes
- number of genes upregulated ([1]; 25 μM, 24 h, of 24905 genes): 986 genes
- number of genes downregulated ([1]; 62 μM, 24 h): 76 genes
- number of genes upregulated ([1]; 62 μM, 24 h): 53 genes
- gene expression of common skin targets ([1]; CRELD1, NGF, GLRX2, CSGALNACT2, VEGFA, ITGA2, PPARG, EPGN): upregulated
- number of genes involved in wound healing downregulated ([1]; at both doses): 24 genes
- number of genes involved in wound healing upregulated ([1]; at both doses): 28 genes
- hair cycle, hair follicle morphogenesis and development (biological processes) ([1]; both concentrations): affected
- number of genes downregulated [1, 6]: 468 genes
- number of genes upregulated [1, 6]: 821 genes
- Log Fc ACTB [1, 7]: −1.055
- Log Fc ADAM17 [1, 7]: 1.323
- Log Fc AJUBA [1, 7]: −1.145
- Log Fc CARMIL1 [1, 7]: −1.177
- Log Fc DGKE [1, 7]: 1.432
- Log Fc EDN1 [1, 7]: −1.404
- Log Fc EREG [1, 7]: 2.169
- Log Fc F2RL2 [1, 7]: 1.038
- Log Fc F3 [1, 7]: −1.039
- Log Fc FGF10 [1, 7]: −1.313
- Log Fc FGFR1OP2 [1, 7]: 1.213
- Log Fc GATA6 [1, 7]: −1.081
- Log Fc GSN [1, 7]: −1.041
- Log Fc HBEGF [1, 7]: 1.225
- Log Fc HIST1H3G [1, 7]: −2.339
- Log Fc HIST2H3A [1, 7]: −1.285
- Log Fc HMOX1 [1, 7]: 1.346
- Log Fc IFRD1 [1, 7]: 1.072
- Log Fc IL6 [1, 7]: 2.578
- Log Fc IL24 [1, 7]: 1.179
- Log Fc IRF1 [1, 7]: 1.27
- Log Fc ITGA2 [1, 7]: 2.425
- Log Fc ITGB3 [1, 7]: 2.051
- Log Fc ITPR1 [1, 7]: 1.812
- Log Fc LBH [1, 7]: −1.524
- Log Fc MAFK [1, 7]: 1.267
- Log Fc MERTK [1, 7]: 1.107
- Log Fc MIR199A1 [1, 7]: 2.142
- Log Fc MIR221 [1, 7]: 1.648
- Log Fc MYLK [1, 7]: −1.62
- Log Fc NDNF [1, 7]: 1.132
- Log Fc NOV [1, 7]: −1.524
- Log Fc PDGFD [1, 7]: −1.782
- Log Fc PDPN [1, 7]: 1.265
- Log Fc PLAUR [1, 7]: 1.077
- Log Fc PLET1 [1, 7]: 1.412
- Log Fc PLPP3 [1, 7]: −1.23
- Log Fc RAB27A [1, 7]: 1.228
- Log Fc SMAD3 [1, 7]: −1.102
- Log Fc SYT7 [1, 7]: 1.079
- Log Fc TFPI2 [1, 7]: 2.549
- Log Fc TGFBR2 [1, 7]: −1.067
- Log Fc THBD [1, 7]: 4.119
- Log Fc THBS1 [1, 7]: −1.287
- Log Fc TLN1 [1, 7]: −1.13
- Log Fc TMEFF2 [1, 7]: −1.526
- Log Fc TNFAIP3 [1, 7]: 2.328
- Log Fc TPM1 [1, 7]: −1.209
- Log Fc TRPC6 [1, 7]: −2.444
- Log Fc UBASH3B [1, 7]: 1.546
- Log Fc WNT5A [1, 7]: −1.732
- Avg (% of untreated) ([2]; 6.2 μM): 80%
- Avg (% of untreated) ([2]; 12.4 μM): 44%
- Avg (% of untreated) ([2]; 24.8 μM): 43%
- Avg (% of untreated) ([2]; 50 μM): 47%
- Avg (% of untreated) ([2]; 100 μM): 43%
- Avg (% of untreated) ([2]; 200 μM): 54%
- Avg (% of untreated) ([2]; 400 μM): 51%
- concentrations that showed no cytotoxicity ([2]; unit not given): up to 6.2
- expression of DNAJB9 [3]: upregulated
- expression of cell cycle genes PKMYT1, MYC [3]: upregulated
- number of genes downregulated ([3]; 1.6 μM): 1196 genes
- number of genes upregulated ([3]; 1.6 μM): 492 genes
- number of genes downregulated ([3]; 3.1 μM, of 24905 genes): 1294 genes
- number of genes upregulated ([3]; 3.1 μM, of 24905 genes): 693 genes
- expression of cell cycle genes ([3]; CDK1, PLK1, RB1, CDC25C, CDC25B, MAD2L1, CDKN2B, CCNA2, MAD1L1, TTK, ZBTB17, RBL1, CCNB1, CCNB2, BUB1, CDC20, PTTG1, BUB1B): downregulated
- expression of genes maintaining structure and activity of the Golgi apparatus ([3]; COG6, ARFGAP3, IFT20, MGAT4): upregulated
- expression of genes important for normal differentiation and function of skin ([3]; FGF2, VEGFA, SERPINB1, CDH4, GDF15): upregulated
- expression of genes involved in Metabolic Pathways ([3]; GK, FA2H, ASS1, ACSS2, HK2, PHGDH, CYP1A1, CSGALNACT2): upregulated
- expression of genes associated with inflammation ([3]; IL1A, IL6, IL1R2, IL1RL1, IL2RG, TSC22D3): upregulated
- expression of genes involved in Metabolic Pathways ([3]; MTHFD1, CYP2J2, RRM2, TYMS): downregulated
- acceptable degradation of active compound (20% or 80% of original) [4]: met this criteria
- Avg (% of untreated) ([5]; 6.2 μM): 97%
- Avg (% of untreated) ([5]; 12.4 μM): 94%
- Avg (% of untreated) ([5]; 24.8 μM): 90%
- Avg (% of untreated) ([5]; 50 μM): 88%
- Avg (% of untreated) ([5]; 100 μM): 74%
- Avg (% of untreated) ([5]; 200 μM): 72%
- Avg (% of untreated) ([5]; 400 μM): 54%
- concentrations that showed no cytotoxicity ([5]; unit not given): up to 50
